In experiment [1] the test system is T1, Pseudomonas fluorescens Pf-5.
T1 construct: Pf-5
Kind of experiment: microbe, parasite or virus in culture. Set-up: broth microdilution growth inhibition, OD595, overnight; MIC50 = concentration reducing growth by 50%. The settings on record: PF5, MIC50, 50% growth reduction. The procedure: (§1) P. fluorescens Pf-5, E. coli (TOP10 or C43), B. subtilis (W23) or M. flavus colonies were isolated from an agar plate and inoculated in 5 mL of Luria-Bertani broth overnight at 37 °C. E. coli C43/pET28a-mraY was grown in Luria-Bertani media containing 50 μg mL^−1 kanamycin. […] Serial dilutions of 125, 62.5, 31.25, 15.63, 7.82, 3.90, 1.95 and 0.97 μg mL^−1 test compound were prepared. 10 μL of water, MeOH and DMSO were added to separate wells to serve as a growth control. Each test condition was tested in triplicate. The 96-well plate was covered and incubated overnight at 30 or 37 °C. Optical density (OD595) was measured using a HIDEX Sense microplate reader 425–301. The inhibitor concentration which reduced the growth by 50% was measured as the MIC50 of the compound. The set of analogues were tested for antimicrobial activity against laboratory strains of E. coli K12, B. subtilis W23, and Pseudomonas fluorescens Pf-5.

The test system of a further experiment is T2, Bacillus subtilis W23.
T2 construct: W23
The experiment in a line: microbe, parasite or virus in culture. Set-up: broth microdilution growth inhibition, OD595, overnight; MIC50 = concentration reducing growth by 50%. The settings on record: MIC50, 50% growth reduction. The procedure: as §1

The next experiment deals with T3, Escherichia coli K12.
T3 construct: K12
Kind of experiment: microbe, parasite or virus in culture. Set-up: broth microdilution growth inhibition, OD595, overnight; MIC50 = concentration reducing growth by 50%. The following applies: MIC50, 50% growth reduction. The procedure:
as §1

Experiment [2] deals with T4, translocase MraY (phospho-MurNAc-pentapeptide translocase) (Escherichia coli, UniProt P0A6W3).
T4 construct: membranes containing overexpressed E. coli MraY
T4 sequence (P0A6W3 1-360): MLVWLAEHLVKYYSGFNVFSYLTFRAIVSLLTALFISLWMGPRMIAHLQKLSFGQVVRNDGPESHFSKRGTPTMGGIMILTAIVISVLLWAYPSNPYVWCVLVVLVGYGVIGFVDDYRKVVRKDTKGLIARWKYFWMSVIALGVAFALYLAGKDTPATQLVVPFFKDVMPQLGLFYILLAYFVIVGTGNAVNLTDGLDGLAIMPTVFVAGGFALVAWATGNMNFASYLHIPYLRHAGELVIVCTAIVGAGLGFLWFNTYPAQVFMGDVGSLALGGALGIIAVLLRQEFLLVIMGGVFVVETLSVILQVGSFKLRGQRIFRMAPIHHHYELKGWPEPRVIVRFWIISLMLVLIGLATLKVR
Kind of experiment: biochemical. More on the design: continuous fluorescence enhancement assay, dansyl-UDPMurNAc-pentapeptide to dansyl-lipid I, membranes overexpressing E. coli MraY. How it is done:
UDP-MurNAc-L-Ala-γ-D-Glu-L-Lys-D-Ala-D-Ala was prepared enzymatically using the methods described by Lloyd et al.,[32] and was converted to UDP-MurNAc-L-Ala-γ-D-Glu-L-Lys(Nε-dansyl)-D-Ala-D-Ala using the method of Brandish et al.[5] The MraY-catalysed reaction was monitored on a HIDEX Sense microplate reader 425–301 (λex 340 nm, λem 530 nm). To monitor the formation of dansyl-lipid I, membranes containing overexpressed E. coli MraY (15 μL of 0.6 mg mL^−1 stock) were incubated with UDP-MurNAc-L-Ala-γ-D-Glu-L-Lys(Nε-dansyl)-D-Ala-D-Ala (25 μM), undecaprenyl phosphate (30 μM, from stock solution in […] Tris buffer pH 7.5 containing 2 mM β-mercaptoethanol, 1 mM MgCl2, 20% glycerol, 0.5% Triton X-100), in 100 mM Tris buffer pH 7.5 containing 25 mM MgCl2, in a total volume of 100 μL. Test compounds were assayed at 200 μM final concentration, in triplicate assays, and compound 6d was assayed at 25–200 μM concentration in triplicate assays. Tunicamycin (20 μM) was used as a positive control for enzyme inhibition assays. Membranes containing overexpressed E. coli R288L mutant MraY were prepared as described in Rodolis et al.[16] Radiochemical assays were carried out using membranes containing overexpressed E. coli MraY as described in Mihalyi et al.[19] The set of analogues were assayed against particulate E. coli MraY from overexpressed membranes, using a fluorescence enhancement assay with fluorescent substrate UDPMurNAc-L-Ala-γ-D-Glu-L-Lys(ε-N-dansyl)-D-Ala-D-Ala, used previously to assay MraY.[5,16,17]

The target in experiment [3] is T5, translocase MraY (phospho-MurNAc-pentapeptide translocase) (Escherichia coli, UniProt P0A6W3).
T5 construct: membranes containing overexpressed E. coli MraY
The experiment in a line: continuous fluorescence assay with dansyl-UDPMurNAc-pentapeptide, overexpressed membranes. It counts as biochemical. The text has this:
continuous fluorescence assay with dansyl-UDPMurNAc-pentapeptide, overexpressed membranes on translocase MraY (phospho-MurNAc-pentapeptide translocase) | highest enzyme inhibition shown by compound 6d.

Experiment [4] deals with T5, translocase MraY (phospho-MurNAc-pentapeptide translocase). Kind of experiment: continuous fluorescence assay, % inhibition at […], overexpressed membranes. It counts as biochemical.

SMILES strings stand for the structures. ≈ marks a conversion by molar mass, not a printed value.

One may read the inhibition as the change of the read-out against control, counted positive when it falls. Regarding `CCCCCCCCn1c(=O)nc(NCCN)n(Cc2ccccc2)c1=O` [6a], the MIC50 in experiment [1] was found to be 64 µg/mL (≈ 171 µM); with Bacillus subtilis W23, 8 µg/mL (≈ 21.4 µM); in the experiment on Escherichia coli K12, 16 µg/mL (≈ 42.8 µM). Further, in experiment [2] (continuous fluorescence assay), the inhibition at 200 µM worked out at 36%.

For the molecule `CCCCCCCCn1c(=O)nc(NCCN)n(Cc2ccc(OC)cc2)c1=O` [6b], the MIC50 in experiment [1] was found to be 32 µg/mL (≈ 79.3 µM); against Bacillus subtilis W23 it was 8 µg/mL (≈ 19.8 µM); with Escherichia coli K12, 16 µg/mL (≈ 39.7 µM). Further, the inhibition at 200 µM in experiment [2] (continuous fluorescence assay) came to 50%.

As for `CCCCCCCCn1c(=O)nc(NCCN)n(Cc2cccc(OC)c2)c1=O` [6c], the MIC50 in experiment [1] is above 256 µg/mL; in the experiment with Bacillus subtilis W23, 32 µg/mL (≈ 79.3 µM); with Escherichia coli K12, 64 µg/mL (≈ 159 µM). Moreover, in experiment [2] (continuous fluorescence assay), the inhibition at 200 µM is 42%.

Broadly, the IC50 is the concentration at which inhibition is half-maximal. `CCCCCCCCn1c(=O)nc(NCCN)n(Cc2ccccc2OC)c1=O` [6d]: the MIC50 is above 256 µg/mL in experiment [1], 32 µg/mL (≈ 79.3 µM) against Bacillus subtilis W23 and 64 µg/mL (≈ 159 µM) in the experiment on Escherichia coli K12. This molecule showed a half-inhibitory concentration (IC50) in experiment [3] of 48 µM. Moreover, the inhibition at 200 µM in experiment [2] (read-out: % MraY inhibition @200 μM) stood at 80%.

For `CCCCCCCCn1c(=O)nc(NCCN)n(Cc2ccc(F)cc2)c1=O` [6e], the figures for the MIC50 (in experiment [1]; against Bacillus subtilis W23; against Escherichia coli K12) were 128 µg/mL (≈ 327 µM), 32 µg/mL (≈ 81.7 µM) and 64 µg/mL (≈ 163 µM), respectively. For the same molecule, the inhibition at 200 µM in experiment [2] (continuous fluorescence assay) was determined as 35%.

`CCCCCCCCn1c(=O)nc(NCCN)n(Cc2ccc(Cl)cc2)c1=O` [6f]: the MIC50 worked out at 64 µg/mL (≈ 157 µM) in experiment [1], 4 µg/mL (≈ 9.81 µM) with Bacillus subtilis W23 and 8 µg/mL (≈ 19.6 µM) against Escherichia coli K12. The inhibition at 200 µM in experiment [2] (continuous fluorescence assay) came to 15%.

Take `CCCCCCCCn1c(=O)nc(NCCN)n(Cc2ccc(Br)cc2)c1=O` [6g]: the MIC50 in experiment [1] stood at 64 µg/mL (≈ 141 µM); against Bacillus subtilis W23 it was 16 µg/mL (≈ 35.4 µM); in the experiment on Escherichia coli K12, 16 µg/mL (≈ 35.4 µM). This molecule came in with an inhibition at 200 µM in experiment [4] of 68%.

For the molecule `CCCCCCCCn1c(=O)nc(NCCN)n(Cc2ccc([N+](=O)[O-])cc2)c1=O` [6h], the MIC50 in experiment [1] is above 256 µg/mL; against Bacillus subtilis W23 it was 32 µg/mL (≈ 76.5 µM); against Escherichia coli K12 it was 64 µg/mL (≈ 153 µM). Besides, the inhibition at 200 µM in experiment [4] stood at 63%.

With `CCCCCCCCn1c(=O)nc(NCCN)n(Cc2ccc(C(F)(F)F)cc2)c1=O` [6j], the MIC50 in experiment [1] is above 256 µg/mL; against Bacillus subtilis W23, 32 µg/mL (≈ 72.5 µM); in the experiment with Escherichia coli K12 it was 64 µg/mL (≈ 145 µM). In experiment [4], this molecule came in with an inhibition at 200 µM of 59%.

With `CCCCCCCCn1c(=O)nc(NCCNC(=N)N)n(Cc2ccccc2)c1=O` [7a], the MIC50 was 32 µg/mL (≈ 77 µM) in experiment [1], 8 µg/mL (≈ 19.3 µM) against Bacillus subtilis W23 and 16 µg/mL (≈ 38.5 µM) against Escherichia coli K12. Besides, the inhibition at 200 µM in experiment [2] (continuous fluorescence assay) is 41%.

On to `CCCCCCCCn1c(=O)nc(NCCNC(=N)N)n(Cc2ccc(OC)cc2)c1=O` [7b], for which the MIC50 was determined as 32 µg/mL (≈ 71.8 µM) in experiment [1], 2 µg/mL (≈ 4.49 µM) in the experiment with Bacillus subtilis W23 and 16 µg/mL (≈ 35.9 µM) in the experiment on Escherichia coli K12. In addition, in experiment [2] (continuous fluorescence assay), the inhibition at 200 µM was 48%.

With `CCCCCCCCn1c(=O)nc(NCCNC(=N)N)n(Cc2cccc(OC)c2)c1=O` [7c], the values for the MIC50 (in experiment [1]; in the experiment on Bacillus subtilis W23; against Escherichia coli K12) were 32 µg/mL (≈ 71.8 µM), 4 µg/mL (≈ 8.98 µM) and 16 µg/mL (≈ 35.9 µM), respectively. In experiment [4], this molecule displayed an inhibition at 200 µM of 57%.

As to `CCCCCCCCn1c(=O)nc(NCCNC(=N)N)n(Cc2ccccc2OC)c1=O` [7d], the MIC50 in experiment [1] was above 256 µg/mL; with Bacillus subtilis W23 it was 4 µg/mL (≈ 8.98 µM); in the experiment on Escherichia coli K12 it was 16 µg/mL (≈ 35.9 µM). Also, the inhibition at 200 µM in experiment [4] turned out to be 57%.

In the case of `CCCCCCCCn1c(=O)nc(NCCNC(=N)N)n(Cc2ccc(F)cc2)c1=O` [7e], the MIC50 in experiment [1] stood at 32 µg/mL (≈ 73.8 µM); with Bacillus subtilis W23, 4 µg/mL (≈ 9.23 µM); in the experiment with Escherichia coli K12 it was 16 µg/mL (≈ 36.9 µM). This molecule also came in with an inhibition at 200 µM in experiment [4] of 63%.

With `CCCCCCCCn1c(=O)nc(NCCNC(=N)N)n(Cc2ccc(Cl)cc2)c1=O` [7f], the figures for the MIC50 (in experiment [1]; with Bacillus subtilis W23; with Escherichia coli K12) were 32 µg/mL (≈ 71.1 µM), 8 µg/mL (≈ 17.8 µM) and 8 µg/mL (≈ 17.8 µM), respectively. Moreover, the inhibition at 200 µM in experiment [2] (continuous fluorescence assay) was 42%.

Consider `CCCCCCCCn1c(=O)nc(NCCNC(=N)N)n(Cc2ccc(Br)cc2)c1=O` [7g], for which the MIC50 stood at 256 µg/mL (≈ 518 µM) in experiment [1], 4 µg/mL (≈ 8.09 µM) against Bacillus subtilis W23 and 16 µg/mL (≈ 32.4 µM) with Escherichia coli K12. This molecule gave an inhibition at 200 µM in experiment [4] of 51%.

In the case of `CCCCCCCCn1c(=O)nc(NCCNC(=N)N)n(Cc2ccc([N+](=O)[O-])cc2)c1=O` [7h], the results for the MIC50 (in experiment [1]; in the experiment with Bacillus subtilis W23; against Escherichia coli K12) were 256 µg/mL (≈ 556 µM), 32 µg/mL (≈ 69.5 µM) and 64 µg/mL (≈ 139 µM), respectively. Further, the inhibition at 200 µM in experiment [4] turned out to be 70%.

In the case of `CCCCCCCCn1c(=O)nc(NCCNC(=N)N)n(Cc2ccc(C(F)(F)F)cc2)c1=O` [7j], the MIC50 in experiment [1] came to 16 µg/mL (≈ 33.1 µM); against Bacillus subtilis W23, 1 µg/mL (≈ 2.07 µM); against Escherichia coli K12, 4 µg/mL (≈ 8.27 µM). In experiment [2] (continuous fluorescence assay), the inhibition at 200 µM came to 43%.

For the molecule `CCCCCCCCn1c(=O)nc(NCCO)n(Cc2ccccc2)c1=O` [compound 11], the MIC50 against Bacillus subtilis W23 and in the experiment with Escherichia coli K12 was above 256 µg/mL throughout. In addition, the inhibition at 200 µM in experiment [2] (continuous fluorescence assay) was 39%.

Take `CCCCCCCCn1c(=O)nc(NCCNC(N)=O)n(Cc2ccccc2)c1=O` [compound 12]: the MIC50 with Bacillus subtilis W23 is 128 µg/mL (≈ 307 µM); in the experiment on Escherichia coli K12, 64 µg/mL (≈ 154 µM). In addition, the inhibition at 200 µM in experiment [2] (continuous fluorescence assay) was 39%.

As to `CCCCCCCCn1c(=O)nc(NCCN)n(C(CCc2ccccc2)c2ccccc2)c1=O` (stereo not shown) [compound 13, 13], the MIC50 in the experiment with Bacillus subtilis W23 amounted to 128 µg/mL (≈ 268 µM); in the experiment with Escherichia coli K12 it was 256 µg/mL (≈ 536 µM). The molecule further yielded an inhibition at 200 µM in experiment [4] of 64%.

(Values after article PMC11812184, “Antimicrobial triazinedione inhibitors of the translocase MraY–protein E interaction site: synergistic effects with bacitracin imply a new mechanism of action” (RSC Medicinal Chemistry, 2025).)
